Experimental findings from patent publication US11370763B2, “Compounds and compositions for treating conditions associated with NLRP activity” (Novartis AG, priority 2017, dated 2022) are described below.

This assay relates to IL-1β production in PMA-differentiated THP-1 cells. As to the kind of experiment: IL-1β production in PMA-differentiated THP-1 cells stimulated with gramicidin (hTHP-1 assay containing 2% fetal bovine serum; Procedures 1-3). The class given is cell-based, human. The following applies: Homo sapiens, THP-1, hTHP-1 assay containing 2% fetal bovine serum, read-out: hTHP-1 IC50 (Average IC50 of compounds in hTHP-1 assay). In a few lines:
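THP-1 cells differentiated with PMA (20 ng/ml, 16-18 h), replated in 2% FBS RPMI (50,000 cells/well), preincubated 1 h with compound (top final 100 μM, 3-fold steps, 0.37% DMSO), then stimulated 2 h with gramicidin (5 μM). Supernatant IL-1β measured by HTRF.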

Like-named read-outs stand apart in the source and are kept apart here.

Take `CC(C)c1ccc(F)c(C(C)C)c1CC(=O)N=S(N)(=O)c1ccc2c(cnn2C)c1` (centres unmarked) [Example 90, N-(amino(1-methyl-1H-indazol-5-yl)(oxo)-λ^6-sulfaneylidene)-2-(3-fluoro-2,6-diisopropylphenyl)acetamide]: the IC50 (class symbols) was in the range of 5000 to 30000 nM.

On to `CC(C)c1ccc(F)c(C(C)C)c1CC(=O)N=S(N)(=O)c1ccc(CN(C)C)cn1` (centres unmarked) [Example 91, N-(amino(5-((dimethylamino)methyl)pyridin-2-yl)(oxo)-λ^6-sulfaneylidene)-2-(3-fluoro-2,6-diisopropylphenyl)acetamide], for which the IC50 (class symbols) was in the range of 5000 to 30000 nM.

Take `CC(C)c1cncc(C(C)C)c1CC(=O)NS(=O)(=O)c1sc(C(C)(C)O)nc1CO` [Example 92, 2-(3,5-diisopropylpyridin-4-yl)-N-((4-(hydroxymethyl)-2-(2-hydroxypropan-2-yl)thiazol-5-yl)sulfonyl)acetamide]: the IC50 (given as numeric bound) was over 30000 nM.

As to `CC(C)c1cc(C2(O)COC2)cc(C(C)C)c1CC(=O)N=S(N)(=O)c1ncc(C(C)(C)O)s1` (centres unmarked) [Example 93, N-(amino(5-(2-hydroxypropan-2-yl)thiazol-2-yl)(oxo)-λ^6-sulfaneylidene)-2-(4-(3-hydroxyoxetan-3-yl)-2,6-diisopropylphenyl)acetamide], the IC50 (given as numeric bound) was over 30000 nM. Take `CC(C)c1cc(C2(F)COC2)cc(C(C)C)c1CC(=O)N=S(N)(=O)c1ncc(C(C)(C)O)s1` (centres unmarked) [Example 94, N-(amino(5-(2-hydroxypropan-2-yl)thiazol-2-yl)(oxo)-λ^6-sulfaneylidene)-2-(4-(3-fluorooxetan-3-yl)-2,6-diisopropylphenyl)acetamide]: the IC50 (class symbols) was 1000 to 5000 nM. Turning to `CCCc1cc(F)cc(CCC)c1CC(=O)N=S(N)(=O)c1cnc(C(C)(C)O)s1` (centres unmarked) [Example 95, N-(amino(2-(2-hydroxypropan-2-yl)thiazol-5-yl)(oxo)-λ^6-sulfaneylidene)-2-(4-fluoro-2,6-dipropylphenyl)acetamide], the IC50 (class symbols) lay in the range of 200 to 1000 nM. Consider `CC(C)c1cc(F)cc(C(C)C)c1C(C)C(=O)N=S(N)(=O)c1cnc(C(C)(C)O)s1` (centres unmarked) [Example 96, N-(amino(2-(2-hydroxypropan-2-yl)thiazol-5-yl)(oxo)-λ^6-sulfaneylidene)-2-(4-fluoro-2,6-diisopropylphenyl)propanamide], for which the IC50 (given as numeric bound) was over 30000 nM. As for `CC(C)c1cc(-c2ccc3c(c2)COCC3)cc(C(C)C)c1CC(=O)N=S(N)(=O)c1cnc(C(C)(C)O)s1` (centres unmarked) [Example 97, N-(amino(2-(2-hydroxypropan-2-yl)thiazol-5-yl)(oxo)-λ^6-sulfaneylidene)-2-(4-(isochroman-7-yl)-2,6-diisopropylphenyl)acetamide], the IC50 (class symbols) was 200 to 1000 nM. Consider `CC(C)(O)c1ncc(S(N)(=O)=NC(=O)Cc2c(C3CC3)cc(F)cc2C(F)(F)F)s1` (centres unmarked) [Example 98], for which the IC50 (class symbols) lay within 5000 to 30000 nM.

As to `CC(C)c1nc(-c2cccc(C(F)(F)F)c2)c(F)c(C(C)C)c1CC(=O)N=S(=O)(NC(=O)OC(C)(C)C)c1cnc(C(C)(C)O)s1` (centres unmarked) [Example 99, tert-butyl (N-(2-(5-fluoro-2,4-diisopropyl-6-(3-(trifluoromethyl)phenyl)pyridin-3-yl)acetyl)-2-(2-hydroxypropan-2-yl)thiazole-5-sulfonimidoyl)carbamate], the IC50 (class symbols) was 1000 to 5000 nM. Take `CC(C)c1nc(-c2cccc(C(F)(F)F)c2)c(F)c(C(C)C)c1CC(=O)N=S(N)(=O)c1cnc(C(C)(C)O)s1` (centres unmarked) [Example 100]: the IC50 (class symbols) was 200 to 1000 nM. With `CC(C)c1ncc(F)c(C(C)C)c1CC(=O)N=S(N)(=O)c1ccc(CN(C)C)cc1` (centres unmarked) [Example 101, N-(amino(4-((dimethylamino)methyl)phenyl)(oxo)-λ^6-sulfaneylidene)-2-(5-fluoro-2,4-diisopropylpyridin-3-yl)acetamide], for the setting “class symbols”, the IC50 lay within 5000 to 30000 nM. For `CC(C)c1cc(F)cc(C2CCOC2)c1CC(=O)N=S(N)(=O)c1cnc(C(C)(C)O)s1` (centres unmarked) [Example 102, N-(amino(2-(2-hydroxypropan-2-yl)thiazol-5-yl)(oxo)-λ^6-sulfaneylidene)-2-(4-fluoro-2-isopropyl-6-(tetrahydrofuran-3-yl)phenyl)acetamide], the IC50 (class symbols) is 5000 to 30000 nM. Still for that read-out and setting: the result for `CC(C)c1ccc(F)c(C(C)C)c1CC(=O)N=S(N)(=O)c1cnc(C(C)(C)O)s1` (centres unmarked) [Example 103, N-(amino(2-(2-hydroxypropan-2-yl)thiazol-5-yl)(oxo)-λ^6-sulfaneylidene)-2-(3-fluoro-2,6-diisopropylphenyl)acetamide] reads 200 to 1000 nM; that for `CC(C)c1c(F)c(Cl)cc(C2CC2)c1CC(=O)N=S(N)(=O)c1cnc(C(C)(C)O)s1` (centres unmarked) [Example 104, N-(amino(2-(2-hydroxypropan-2-yl)thiazol-5-yl)(oxo)-λ^6-sulfaneylidene)-2-(4-chloro-6-cyclopropyl-3-fluoro-2-isopropylphenyl)acetamide], 200 to 1000 nM. Take `COCc1cc(C(C)C)c(CC(=O)N=S(N)(=O)c2cc(C(C)(C)O)cs2)c(C(C)C)c1` (centres unmarked) [Example 105, N-(amino(4-(2-hydroxypropan-2-yl)thiophen-2-yl)(oxo)-λ^6-sulfaneylidene)-2-(2,6-diisopropyl-4-(methoxymethyl)phenyl) acetamide]: the IC50 (class symbols) was in the range of 40 to 200 nM. For the molecule `CC(C)c1ccc(F)c(C(C)C)c1CC(=O)N=S(N)(=O)c1cc(C(C)(C)O)cs1` (centres unmarked) [Example 106, N-(amino(4-(2-hydroxypropan-2-yl)thiophen-2-yl)(oxo)-λ^6-sulfaneylidene)-2-(3-fluoro-2,6-diisopropylphenyl)acetamide], the IC50 (class symbols) was 40 to 200 nM. Regarding `CC(C)c1cc(-n2cccn2)cc(C(C)C)c1CC(=O)N=S(N)(=O)c1cnc(C(C)(C)O)s1` (centres unmarked) [Example 107, N-(amino(2-(2-hydroxypropan-2-yl)thiazol-5-yl)(oxo)-λ^6-sulfaneylidene)-2-(2,6-diisopropyl-4-(1H-pyrazol-1-yl)phenyl)acetamide], the concentration for half-maximal inhibition (IC50) (class symbols) fell in the range of 5000 to 30000 nM. In the case of `COCc1cc(C(C)C)c(CC(=O)N=S(N)(=O)c2cnc(C(C)(C)O)s2)c(C(C)C)c1` (centres unmarked) [Example 108, N-(amino(2-(2-hydroxypropan-2-yl)thiazol-5-yl)(oxo)-λ^6-sulfaneylidene)-2-(2,6-diisopropyl-4-(methoxymethyl)phenyl) acetamide], under “class symbols”, the IC50 was in the range of 40 to 200 nM.

As to `COCc1cc(C(C)C)c(CC(=O)N=S(N)(=O)c2cnc(C(C)(C)O)s2)c(C(C)C)c1F` (centres unmarked) [Example 109, N-(amino(2-(2-hydroxypropan-2-yl)thiazol-5-yl)(oxo)-λ^6-sulfaneylidene)-2-(3-fluoro-2,6-diisopropyl-4-(methoxymethyl)phenyl) acetamide], the IC50 (class symbols) was 40 to 200 nM. In the case of `CC(C)c1cc(-c2ccc3ccccc3c2)cc(C(C)C)c1CC(=O)N=S(N)(=O)c1ncc(C(C)(C)O)s1` (centres unmarked) [Example 110, N-(amino(5-(2-hydroxypropan-2-yl)thiazol-2-yl)(oxo)-λ^6-sulfaneylidene)-2-(2,6-diisopropyl-4-(naphthalen-2-yl)phenyl)acetamide], for the setting “class symbols”, the IC50 is 200 to 1000 nM. For the molecule `COCc1cc(C(C)C)c(CC(=O)N=S(N)(=O)c2ncc(C(C)(C)O)s2)c(C(C)C)c1` (centres unmarked) [Example 111, N-(amino(5-(2-hydroxypropan-2-yl)thiazol-2-yl)(oxo)-λ^6-sulfaneylidene)-2-(2,6-diisopropyl-4-(methoxymethyl)phenyl) acetamide], the IC50 (class symbols) is 40 to 200 nM. Regarding `CC(C)c1cc(-c2ccc(Cl)c(Cl)c2)cc(C(C)C)c1CC(=O)N=S(N)(=O)c1cnc(C(C)(C)O)s1` (centres unmarked) [Example 112, N-(amino(2-(2-hydroxypropan-2-yl)thiazol-5-yl)(oxo)-λ^6-sulfaneylidene)-2-(3′,4′-dichloro-3,5-diisopropyl-[1,1′-biphenyl]-4-yl)acetamide], the IC50 (class symbols) fell in the range of 200 to 1000 nM. On the same count and under the same terms, then `CC(C)c1cc(-c2ccc3ccccc3c2)cc(C(C)C)c1CC(=O)N=S(N)(=O)c1cnc(C(C)(C)O)s1` (centres unmarked) [Example 113, N-(amino(2-(2-hydroxypropan-2-yl)thiazol-5-yl)(oxo)-λ^6-sulfaneylidene)-2-(2,6-diisopropyl-4-(naphthalen-2-yl)phenyl)acetamide], with 8 to 40 nM. On to `CC(C)c1ccc(C#N)c(C(C)C)c1CC(=O)N=S(N)(=O)c1cnc(C(C)(C)O)s1` (centres unmarked) [Example 114, N-(amino(2-(2-hydroxypropan-2-yl)thiazol-5-yl)(oxo)-λ^6-sulfaneylidene)-2-(3-cyano-2,6-diisopropylphenyl)acetamide], for which the IC50 (class symbols) lay within 1000 to 5000 nM.

In the case of `CC(C)c1c(F)c(C#N)cc(C2CC2)c1CC(=O)N=S(N)(=O)c1sc(C(C)(C)O)nc1CO` (centres unmarked) [Example 115, N-(amino(4-(hydroxymethyl)-2-(2-hydroxypropan-2-yl)thiazol-5-yl)(oxo)-λ^6-sulfaneylidene)-2-(4-cyano-6-cyclopropyl-3-fluoro-2-isopropylphenyl)acetamide], the IC50 (class symbols) fell in the range of 200 to 1000 nM.

As for `COc1ccc2cc(-c3cc(C(C)C)c(CC(=O)N=S(N)(=O)c4cnc(C(C)(C)O)s4)c(C(C)C)c3)ccc2c1` (centres unmarked) [Example 116, N-(amino(2-(2-hydroxypropan-2-yl)thiazol-5-yl)(oxo)-λ^6-sulfaneylidene)-2-(2,6-diisopropyl-4-(6-methoxynaphthalen-2-yl)phenyl)acetamide], the IC50 (class symbols) lay within 5000 to 30000 nM.

Take `CC(C)c1cc(-c2ccc3c(c2)OC(F)(F)O3)cc(C(C)C)c1CC(=O)N=S(N)(=O)c1ncc(C(C)(C)O)s1` (centres unmarked) [Example 117, N-(amino(5-(2-hydroxypropan-2-yl)thiazol-2-yl)(oxo)-λ^6-sulfaneylidene)-2-(4-(2,2-difluorobenzo[d][1,3]dioxol-5-yl)-2,6-diisopropylphenyl)acetamide]: the IC50 (class symbols) was in the range of 40 to 200 nM.

Consider `CC(C)c1cc(-c2ccc3c(c2)OC(F)(F)O3)cc(C(C)C)c1CC(=O)N=S(N)(=O)c1cnc(C(C)(C)O)s1` (centres unmarked) [Example 118, N-(amino(2-(2-hydroxypropan-2-yl)thiazol-5-yl)(oxo)-λ^6-sulfaneylidene)-2-(4-(2,2-difluorobenzo[d][1,3]dioxol-5-yl)-2,6-diisopropylphenyl)acetamide], for which the IC50 (class symbols) lay in the range of 200 to 1000 nM.
